pIC50: −log10 of the molar value. Where “and” joins values, the source holds several entries; their conditions need not be identical. Equal entries are not always repeated.
Columns and labels:
Assay type in all cases: biochemical
K-Ras G12C = K-Ras G12C (Homo sapiens (Human), UniProt P01116+P62937, G12C); assay: Ras-Raf (BRAF RBD) disruption / FRET / MOA assay, KRAS G12C; details: KRAS G12C; Ras-Raf disruption/FRET/MOA assay; read-out: IC50* KRAS G12C FRET data
Procedure, shortened: (§1)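 Compounds, top final concentration 30 μM in 10-point 3-fold series, incubated 3 hours at 25° C with nucleotide-loaded Ras, cyclophilin A and BRAF RBD.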

K-Ras G13C = K-Ras G13C (Homo sapiens (Human), UniProt P01116+P62937, G13C); assay: Ras-Raf (BRAF RBD) disruption / FRET / MOA assay, KRAS G13C; details: KRAS G13C; Ras-Raf disruption/FRET/MOA assay; read-out: IC50* KRAS G13C FRET data
Procedure, shortened: as §1

KRAS G12V = KRAS G12V (Homo sapiens (Human), UniProt P01116+P62937, G12V); assay: Ras-Raf (BRAF RBD) disruption / FRET / MOA assay, KRAS G12V; details: read-out: IC50* KRAS G12V FRET data
Procedure, shortened: as §1

KRAS G13D = KRAS G13D (Homo sapiens (Human), UniProt P01116+P62937, G13D); assay: Ras-Raf (BRAF RBD) disruption / FRET / MOA assay, KRAS G13D; details: read-out: IC50* KRAS G13D FRET data
Procedure, shortened: as §1

KRAS Q61H = KRAS Q61H (Homo sapiens (Human), UniProt P01116+P62937, Q61H); assay: Ras-Raf (BRAF RBD) disruption / FRET / MOA assay, KRAS Q61H; details: Ras-Raf disruption/FRET/MOA assay; class symbols; read-out: KRAS Q61H FRET data IC50
Procedure, shortened: (§2)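 TR-FRET disruption of nucleotide-loaded Ras binding to BRAF RBD via compound-driven ternary complex with cyclophilin A. Compound as 10-point 3-fold series from 30 μM final, 3 h at 25° C, then anti-His Eu-W1024 (10 nM) and anti-GST allophycocyanin (50 nM) for 1.5 h. IC50 from decreased FRET ratio versus DMSO.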

NRAS G12C = NRAS G12C (Homo sapiens (Human), UniProt P01111+P62937, G12C); assay: Ras-Raf (BRAF RBD) disruption / FRET / MOA assay, NRAS G12C; details: read-out: IC50* NRAS G12C FRET data
Procedure, shortened: as §1

NRAS Q61R = NRAS Q61R (Homo sapiens (Human), UniProt P01111+P62937, Q61R); assay: Ras-Raf (BRAF RBD) disruption / FRET / MOA assay, NRAS Q61R; details: NRAS Q61R; Ras-Raf disruption/FRET/MOA assay; read-out: IC50* NRAS Q61R FRET data
Procedure, shortened: as §2

NRAS Q61K = NRAS Q61K (Homo sapiens (Human), UniProt P01111+P62937, Q61K); assay: Ras-Raf (BRAF RBD) disruption / FRET / MOA assay, NRAS Q61K; details: NRAS Q61K; Ras-Raf disruption/FRET/MOA assay; read-out: IC50* NRAS Q61K FRET data
Procedure, shortened: as §2

NRAS WT = NRAS WT (Homo sapiens (Human), UniProt P01111+P62937); assay: Ras-Raf (BRAF RBD) disruption / FRET / MOA assay, NRAS WT; details: read-out: IC50* NRAS WT FRET data
Procedure, shortened: as §2

K-Ras G13C, sequence (P01116-2 other isoform, or with tags, fused parts or gaps G13C): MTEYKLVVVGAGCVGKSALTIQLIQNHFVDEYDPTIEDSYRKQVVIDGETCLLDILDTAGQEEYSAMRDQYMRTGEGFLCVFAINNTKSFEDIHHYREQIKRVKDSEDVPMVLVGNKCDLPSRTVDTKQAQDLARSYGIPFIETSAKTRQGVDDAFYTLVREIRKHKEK
K-Ras G13C, sequence (P62937 whole entry): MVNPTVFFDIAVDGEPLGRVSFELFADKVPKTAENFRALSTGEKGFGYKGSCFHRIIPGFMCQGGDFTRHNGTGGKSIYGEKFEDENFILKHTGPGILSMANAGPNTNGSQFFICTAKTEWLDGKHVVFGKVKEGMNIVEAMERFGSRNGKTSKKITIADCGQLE
KRAS Q61H, sequence (P01116-2 other isoform, or with tags, fused parts or gaps Q61H): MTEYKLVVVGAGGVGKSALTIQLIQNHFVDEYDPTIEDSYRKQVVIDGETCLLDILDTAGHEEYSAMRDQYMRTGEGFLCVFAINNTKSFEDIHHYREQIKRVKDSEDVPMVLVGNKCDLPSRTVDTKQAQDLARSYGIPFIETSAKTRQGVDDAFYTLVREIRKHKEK
KRAS Q61H, sequence (P62937 whole entry): as the sequence (P62937 whole entry) above
NRAS Q61R, sequence (P01111 whole entry Q61R): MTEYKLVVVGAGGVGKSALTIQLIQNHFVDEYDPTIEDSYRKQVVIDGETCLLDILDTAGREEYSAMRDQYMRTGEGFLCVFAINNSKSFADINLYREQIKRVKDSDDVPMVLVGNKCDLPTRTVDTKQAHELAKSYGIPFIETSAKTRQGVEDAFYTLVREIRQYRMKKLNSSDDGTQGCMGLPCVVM
NRAS Q61R, sequence (P62937 whole entry): as the sequence (P62937 whole entry) above
NRAS G12C, sequence (P01111 whole entry G12C): as the sequence (P01111 whole entry Q61R) above, with G12C, R61Q counted along it
NRAS G12C, sequence (P62937 whole entry): as the sequence (P62937 whole entry) above
K-Ras G12C, sequence (P01116-2 other isoform, or with tags, fused parts or gaps G12C): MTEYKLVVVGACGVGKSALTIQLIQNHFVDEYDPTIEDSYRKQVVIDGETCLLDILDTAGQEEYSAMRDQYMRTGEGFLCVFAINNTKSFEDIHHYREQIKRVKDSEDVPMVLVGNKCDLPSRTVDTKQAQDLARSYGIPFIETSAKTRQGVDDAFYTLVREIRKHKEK
K-Ras G12C, sequence (P62937 whole entry): as the sequence (P62937 whole entry) above
KRAS G12V, sequence (P01116-2 other isoform, or with tags, fused parts or gaps G12V): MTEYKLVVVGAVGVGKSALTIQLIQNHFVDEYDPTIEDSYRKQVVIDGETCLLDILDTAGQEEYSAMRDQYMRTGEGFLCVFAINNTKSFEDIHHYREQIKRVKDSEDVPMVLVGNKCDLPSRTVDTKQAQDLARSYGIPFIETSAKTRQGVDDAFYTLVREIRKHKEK
KRAS G12V, sequence (P62937 whole entry): as the sequence (P62937 whole entry) above
NRAS WT, sequence (P01111 whole entry): as the sequence (P01111 whole entry Q61R) above, with R61Q counted along it
NRAS WT, sequence (P62937 whole entry): as the sequence (P62937 whole entry) above
KRAS G13D, sequence (P01116-2 other isoform, or with tags, fused parts or gaps G13D): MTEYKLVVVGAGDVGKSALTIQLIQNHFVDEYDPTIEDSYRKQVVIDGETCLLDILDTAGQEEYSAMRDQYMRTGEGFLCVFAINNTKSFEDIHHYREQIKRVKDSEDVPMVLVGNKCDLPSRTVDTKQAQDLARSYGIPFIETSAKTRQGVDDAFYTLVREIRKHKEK
KRAS G13D, sequence (P62937 whole entry): as the sequence (P62937 whole entry) above
NRAS Q61K, sequence (P01111 whole entry Q61K): as the sequence (P01111 whole entry Q61R) above, with R61K counted along it
NRAS Q61K, sequence (P62937 whole entry): as the sequence (P62937 whole entry) above

Row | Structure (SMILES) | pIC50 (K-Ras G12C) | IC50 (K-Ras G13C) | IC50 (KRAS G12V) | pIC50 (KRAS G13D) | pIC50 (KRAS Q61H) | pIC50 (NRAS G12C) | pIC50 (NRAS Q61R) | pIC50 (NRAS Q61K) | pIC50 (NRAS WT) | pIC50 (K-Ras G13C) | pIC50 (KRAS G12V)
1 | CCn1c(-c2cccnc2[C@H](C)OC)c2c3cc(ccc31)-c1cccc(c1)C[C@H](NC(=O)C(COC1CN(C(=O)C#CC(C)(C)N(C)C)C1)C(C)C)C(=O)N1CCC[C@H](N1)C(=O)OCC(C)(C)C2 (stereo partly drawn) [Example A316, (2R)-2-(((1-(4-(dimethylamino)-4-methylpent-2-ynoyl)azetidin-3-yl)oxy)methyl)-N-((6^3S,4S)-1^1-ethyl-1^2-(2-((S)-1-methoxyethyl)pyridin-3-yl)-10,10-dimethyl-5,7-dioxo-6^1,6^2,6^3,6^4,6^5,6^6-hexahydro-1^1H-8-oxa-1(5,3)-indola-6(1,3)-pyridazina-2(1,3)-benzenacycloundecaphane-4-yl)-3-methylbutanamide] | > 8.00 | 1 µM to 10 µM (2×) and > 10 µM | 1 µM to 10 µM and > 10 µM (2×) | < 5.00 | < 5.00 | > 8.00 | < 5.00 | < 5.00 | < 5.00 |  | 
2 | C=CC(=O)N1CCC(C(=O)N(C)[C@H](C(=O)N[C@H]2Cc3cc(CF)cc(c3)-c3ccc4c(c3)c(c(-c3cccnc3[C@H](C)OC)n4CC(F)(F)F)CC(C)(C)COC(=O)[C@@H]3CCCN(N3)C2=O)C(C)C)C1 (stereo partly drawn) [Example A659] | 7.00 to 8.00 |  |  | 6.00 to 7.00 | 6.00 to 7.00 | 7.00 to 8.00 | 6.00 to 7.00 | 5.00 to 6.00 | 6.00 to 7.00 | 6.00 to 7.00 | 6.00 to 7.00
3 | CCn1c(-c2cccnc2[C@H](C)OC)c2c3cc(ccc31)N1CCO[C@@H](C[C@H](NC(=O)[C@H](C(C)C)N(C)C(=O)[C@@]3(F)CCC(C(=O)C#CC(C)(C)N4CCC4)C3)C(=O)N3CCC[C@H](N3)C(=O)OCC(C)(C)C2)C1 (stereo partly drawn) [Example A726] | > 8.00 |  |  | 5.00 to 6.00 | 5.00 to 6.00 | 7.00 to 8.00 | < 5.00 | < 5.00 | 5.00 to 6.00 | 6.00 to 7.00 | 5.00 to 6.00

Source: patent publication US11566007B2, “Ras inhibitors” (Revolution Medicines, Inc., priority 2019, dated 2023)
